Assays:
[1] = Swelling and degradation of gels in excess PBS (pH 7.4) at 37° C.; assay type: physicochemical
Source text: The control copolymer comprises […] of JAAm. […] These gels dissolve in approximately 20 weeks.
Gels flow when inverted after 7-10 days and dissolve completely within 2-3 weeks.

[2] = Solubility of vancomycin loaded into the polymer solution; assay type: physicochemical; details: loaded at 50 mg/mL
Procedure: To prepare a solution for antibiotic delivery, the materials can be sterilized (such as by ethylene oxide gas sterilization) and then dissolved in 150 mM phosphate buffered saline (pH 7.4). After dissolution of the polymer, drug powder (finely ground) is added directly to the polymer solution and vortex mixed to distribute the drug evenly throughout the solution. The solutions can be stored in a freezer until use and thawed at the time of use. The solution then can be injected, brushed, poured, sprayed, or otherwise administered as a liquid at the desired site. The solution can also be allowed to warm to above its initial LCST and then implanted as a soft hydrogel at the desired site. Examples of desired sites for delivery of this material might include the surface of a joint prosthesis, the intramedullary canal before implantation of a prosthesis, an infected area, or any location deemed to have a risk of future infection. An example formulation might be a 30 wt % polymer solution with approximately 50 mg vancomycin hydrochloride loaded per mL of polymer solution.
FIG. 7 graphically illustrates a fraction of loaded vancomycin released from Applicants' injectable and degradable terpolymer I based gels comprising poly(NIPAAm-co-DBLA-co-JAAm) gels loaded with either 50 mg or 5 mg per gel.

Row | Degradation time (37° C., pH 7.4) [1] [weeks] | Molecule | solubility in polymer solution [2]
1 | ~20 | poly(NIPAAm-co-DBLA) | –
2 | – | CN[C@H](CC(C)C)C(=O)N[C@H]1C(=O)N[C@@H](CC(N)=O)C(=O)N[C@H]2C(=O)N[C@H]3C(=O)N[C@H](C(=O)N[C@H](C(=O)O)c4cc(O)cc(O)c4-c4cc3ccc4O)[C@H](O)c3ccc(c(Cl)c3)Oc3cc2cc(c3O[C@@H]2O[C@H](CO)[C@@H](O)[C@H](O)[C@H]2O[C@H]2C[C@](C)(N)[C@H](O)[C@H](C)O2)Oc2ccc(cc2Cl)[C@H]1O [vancomycin] | Some vancomycin is insoluble
